Test results from patent US20250195521A1 (Revolution Medicines, Inc., priority 2020, published 2025).
Like-named read-outs stand apart in the source and are kept apart here.

How the values were obtained:
KRAS G12C = KRAS G12C (Homo sapiens (Human), UniProt P01116+P62937, G12C); test: Ras-Raf disruption/FRET/MOA assay (BRAF RBD, Cyclophilin A); format: biochemical; details: read-out: KRAS G12C FRET IC50
Protocol: (§1) Compound is present in plate wells as a 10-point 3-fold dilution series starting at a final concentration of 30 μM. After incubation at 25° C. for 3 hours, a mixture of Anti-His Eu—W1024 and anti-GST allophycocyanin is then added to assay sample wells at final concentrations of 10 nM and 50 nM, respectively, and the reaction incubated for an additional 1.5 hours. […] Compounds that facilitate disruption of a Ras: RAF complex are identified as those eliciting a decrease in the TR-FRET ratio relative to DMSO control wells.
(§2) Disruption of B-Raf Ras-Binding Domain (BRAF^RBD) Interaction with K-Ras by Compounds of the Invention (Also Called a FRET Assay or an MOA Assay)
(§3) Note—The following protocol describes a procedure for monitoring disruption of K-Ras G12C (GMP-PNP) binding to BRAF^RBD by a compound of the invention. This protocol may also be executed substituting other Ras proteins or nucleotides.
(§4) The purpose of this biochemical assay was to measure the ability of test compounds to facilitate ternary complex formation between a nucleotide-loaded K-Ras isoform and Cyclophilin A; the resulting ternary complex disrupts binding to a BRAF^RBD construct, inhibiting K-Ras signaling through a RAF effector. Data is reported as IC50 values.
(§5) In assay buffer containing 25 mM HEPES pH 7.3, 0.002% Tween20, 0.1% BSA, 100 mM NaCl and 5 mM MgCl2, tagless Cyclophilin A, His6-K-Ras-GMPPNP, and GST-BRAF^RBD were combined in a 384-well assay plate at final concentrations of 25 μM, 12.5 nM and 50 nM, respectively. Compound was present in plate wells as a 10-point 3-fold dilution series starting at a final concentration of 30 μM. After incubation at 25° C. for 3 hours, a mixture of Anti-His Eu—W1024 and anti-GST allophycocyanin was then added to assay sample wells at final concentrations of 10 nM and 50 nM, respectively, and the reaction incubated for an additional 1.5 hours. […] Compounds that facilitate disruption of a K-Ras: RAF complex were identified as those eliciting a decrease in the TR-FRET ratio relative to DMSO control wells.

NRAS G12C = NRAS G12C (Homo sapiens (Human), UniProt P01111+P62937, G12C); test: as above; format: biochemical; details: read-out: NRAS G12C FRET data IC50
Protocol: as §1, §2, §3, §4, §5

KRAS G13C = KRAS G13C (Homo sapiens (Human), UniProt P01116+P62937, G13C); test: as above; format: biochemical; details: read-out: KRAS G13C FRET IC50
Protocol: as §1, §2, §3, §4, §5

KRAS G13D = KRAS G13D (Homo sapiens (Human), UniProt P01116+P62937, G13D); test: as above; format: biochemical; details: read-out: KRAS G13D FRET data IC50
Protocol: as §1, §2, §3, §4, §5

KRAS G12V = KRAS G12V (Homo sapiens (Human), UniProt P01116+P62937, G12V); test: as above; format: biochemical; details: read-out: KRAS G12V FRET IC50
Protocol: as §1, §2, §3, §4, §5

KRAS G12S = KRAS G12S (Homo sapiens (Human), UniProt P01116+P62937, G12S); test: as above; format: biochemical; details: read-out: KRAS G12S FRET IC50
Protocol: as §1, §2, §3, §4, §5

KRAS G12D = KRAS G12D (Homo sapiens (Human), UniProt P01116+P62937, G12D); test: as above; format: biochemical; details: read-out: KRAS G12D FRET IC50
Protocol: as §1, §2, §3, §4, §5

KRAS WT = KRAS WT (Homo sapiens (Human), UniProt P01116+P62937); test: as above; format: biochemical; details: read-out: KRAS WT FRET data IC50
Protocol: as §1, §2, §3, §4, §5

[1] = system: Capan-1 cells (K-Ras G12V); test: CellTiter-Glo cell viability, Capan-1; format: cell-based, human; details: K-Ras G12V, 5-day treatment, read-out: Capan-1 Cell Viability IC50
How it was run: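 Luminescence read on day 5 after ~30 min room-temperature equilibration; compounds added directly to plated cells. Values = (sample signal/avg DMSO)*100, four-parameter logistic fit.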

[2] = system: K-Ras G12C (NCI-H358 cells); test: Potency assay: pERK in NCI-H358 cells; format: cell-based, human; details: Homo sapiens; NCI-H358 cells, 4 hours; read-out: pERK EC50 (H358 KRAS G12C)
How it was run: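 Cells plated the day before were exposed for 4 h at 37° C, 5% CO2 to a 10-point, 3-fold DMSO dilution series (10 mM top stock), in duplicate. Phospho-ERK was read by AlphaLISA SureFire Ultra or by In-Cell Western with DRAQ5 DNA stain, and IC50 came from a 4-parameter sigmoidal fit.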

NRAS G12C, sequence (P01111 whole entry G12C): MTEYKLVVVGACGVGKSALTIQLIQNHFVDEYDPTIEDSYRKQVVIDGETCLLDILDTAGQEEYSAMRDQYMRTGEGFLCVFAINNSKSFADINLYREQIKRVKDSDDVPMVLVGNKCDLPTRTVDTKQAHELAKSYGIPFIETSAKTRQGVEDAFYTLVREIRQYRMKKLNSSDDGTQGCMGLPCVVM
NRAS G12C, sequence (P62937 whole entry): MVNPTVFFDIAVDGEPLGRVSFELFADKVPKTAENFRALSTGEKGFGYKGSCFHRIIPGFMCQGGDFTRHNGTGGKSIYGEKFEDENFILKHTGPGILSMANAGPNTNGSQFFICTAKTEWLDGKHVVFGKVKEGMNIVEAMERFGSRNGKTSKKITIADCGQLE
KRAS G13D, sequence (P01116 other isoform, or with tags, fused parts or gaps G13D): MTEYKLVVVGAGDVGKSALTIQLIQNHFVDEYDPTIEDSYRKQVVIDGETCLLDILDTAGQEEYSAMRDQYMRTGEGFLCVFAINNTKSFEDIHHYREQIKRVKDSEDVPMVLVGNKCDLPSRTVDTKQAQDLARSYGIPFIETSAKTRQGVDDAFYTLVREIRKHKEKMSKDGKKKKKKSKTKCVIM
KRAS G13D, sequence (P62937 whole entry): as the sequence (P62937 whole entry) above
KRAS G13C, sequence (P01116 other isoform, or with tags, fused parts or gaps G13C): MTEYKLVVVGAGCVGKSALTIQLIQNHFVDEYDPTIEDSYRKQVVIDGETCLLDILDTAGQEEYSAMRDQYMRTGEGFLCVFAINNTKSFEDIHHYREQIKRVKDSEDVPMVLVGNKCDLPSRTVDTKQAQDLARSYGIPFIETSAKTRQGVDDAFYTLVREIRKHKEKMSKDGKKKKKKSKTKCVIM
KRAS G13C, sequence (P62937 whole entry): as the sequence (P62937 whole entry) above
KRAS WT, sequence (P01116 other isoform, or with tags, fused parts or gaps): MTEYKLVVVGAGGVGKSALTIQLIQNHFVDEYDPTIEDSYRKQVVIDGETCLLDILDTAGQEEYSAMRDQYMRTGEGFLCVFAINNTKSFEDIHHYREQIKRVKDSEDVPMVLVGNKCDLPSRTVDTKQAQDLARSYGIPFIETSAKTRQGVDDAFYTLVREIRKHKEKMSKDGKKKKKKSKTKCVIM
KRAS WT, sequence (P62937 whole entry): as the sequence (P62937 whole entry) above
KRAS G12D, sequence (P01116 other isoform, or with tags, fused parts or gaps G12D): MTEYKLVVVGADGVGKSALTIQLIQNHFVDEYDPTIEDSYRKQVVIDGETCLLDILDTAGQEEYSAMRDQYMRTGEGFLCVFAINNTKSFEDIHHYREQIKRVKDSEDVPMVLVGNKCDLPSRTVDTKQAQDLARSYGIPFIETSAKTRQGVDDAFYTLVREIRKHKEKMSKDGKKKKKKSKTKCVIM
KRAS G12D, sequence (P62937 whole entry): as the sequence (P62937 whole entry) above
KRAS G12C, sequence (P01116-2 other isoform, or with tags, fused parts or gaps G12C): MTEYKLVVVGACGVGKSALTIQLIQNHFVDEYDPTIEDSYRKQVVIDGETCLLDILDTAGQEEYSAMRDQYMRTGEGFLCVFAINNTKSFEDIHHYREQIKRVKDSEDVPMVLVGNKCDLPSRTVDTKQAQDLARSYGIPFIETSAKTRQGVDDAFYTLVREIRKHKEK
KRAS G12C, sequence (P62937 whole entry): as the sequence (P62937 whole entry) above
KRAS G12S, sequence (P01116 other isoform, or with tags, fused parts or gaps G12S): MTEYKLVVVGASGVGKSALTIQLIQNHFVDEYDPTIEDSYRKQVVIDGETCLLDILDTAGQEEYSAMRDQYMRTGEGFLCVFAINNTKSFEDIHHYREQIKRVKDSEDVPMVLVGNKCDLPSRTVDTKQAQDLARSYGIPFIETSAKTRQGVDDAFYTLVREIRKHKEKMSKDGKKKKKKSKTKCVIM
KRAS G12S, sequence (P62937 whole entry): as the sequence (P62937 whole entry) above
KRAS G12V, sequence (P01116 other isoform, or with tags, fused parts or gaps G12V): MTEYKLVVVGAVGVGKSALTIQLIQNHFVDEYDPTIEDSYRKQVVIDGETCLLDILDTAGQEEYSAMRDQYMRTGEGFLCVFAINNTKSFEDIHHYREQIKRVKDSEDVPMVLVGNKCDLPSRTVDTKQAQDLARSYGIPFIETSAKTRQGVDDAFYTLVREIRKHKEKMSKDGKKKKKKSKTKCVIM
KRAS G12V, sequence (P62937 whole entry): as the sequence (P62937 whole entry) above

Row | Compound | IC50 (KRAS G12C) [µM] | IC50 (NRAS G12C) [µM] | IC50 (KRAS G13C) [µM] | IC50 (KRAS G13D) [µM] | IC50 (KRAS G12V) [µM] | IC50 (KRAS G12S) [µM] | IC50 (KRAS G12D) [µM] | IC50 (KRAS WT) [µM] | IC50 ([1]; Homo sapiens, CAPAN-1, 120 h) [µM] | EC50 [2] [µM] | IC50 [1] [µM]
1 | CCn1c(-c2cnccc2COC)c2c3cc(ccc31)-c1cc(O)cc(c1)C[C@H](NC(=O)[C@H](C(C)C)N(C)c1nccs1)C(=O)N1CCC[C@H](N1)C(=O)OCC(C)(C)C2 [Compound A86] | 0.1 to 1 | 1 to 10 | 0.1 to 1 | 1 to 10 | 1 to 10 | 1 to 10 | > 10 | 1 to 10 | > 10 | < 5 | 
2 | CCn1c(-c2cnccc2COC)c2c3cc(ccc31)-c1cc(O)cc(c1)C[C@H](NC(=O)[C@H](C(C)C)N(C)C(=O)C1CN(C)C1)C(=O)N1CCC[C@H](N1)C(=O)OCC(C)(C)C2 [Compound A88] | 0.1 to 1 | 0.1 to 1 | 0.01 to 0.1 | 0.01 to 0.1 | 1 to 10 | 0.1 to 1 | 0.1 to 1 | 0.1 to 1 | > 10 | < 5 | 
3 | CCn1c(-c2cccnc2[C@H](C)OC)c2c3cc(ccc31)-c1cccc(c1)C[C@H](NC(=O)[C@H](C(C)C)N(C)C(=O)[C@H]1CCN(C)C1)C(=O)N1CCC[C@H](N1)C(=O)OCC(C)(C)C2 [Compound A107] | 1 to 10 | 1 to 10 | 0.1 to 1 | 1 to 10 | > 10 | 1 to 10 | 1 to 10 | 1 to 10 | 1 to 10 | < 5 | 
4 | CCn1c(-c2cccnc2[C@H](C)OC)c2c3cc(ccc31)-c1cc(O)cc(c1)C[C@H](NC(=O)[C@@H]1[C@H](C)CCN1C(C)=O)C(=O)N1CCC[C@H](N1)C(=O)OCC(C)(C)C2 [Compound A144] | 0.1 to 1 | 1 to 10 | 0.1 to 1 | 1 to 10 | 1 to 10 | 1 to 10 | 1 to 10 | 0.1 to 1 | 1 to 10 | < 5 | 
5 | CCn1c(-c2cccnc2[C@H](C)OC)c2c3cc(ccc31)-c1cc(O)cc(c1)C[C@H](NC(=O)[C@H](C(C)C)N(C)C(=O)[C@H]1CC1(C)C)C(=O)N1CCC[C@H](N1)C(=O)OCC(C)(C)C2 [Compound A158] | 0.1 to 1 | 0.1 to 1 | 0.1 to 1 | 0.1 to 1 | 0.1 to 1 | 0.1 to 1 | 0.1 to 1 | 0.1 to 1 | 1 to 10 | < 5 | 
6 | CCn1c(-c2cccnc2[C@H](C)OC)c2c3cc(ccc31)-c1cc(O)cc(c1)C[C@H](NC(=O)[C@H]1C[C@@H]1C)C(=O)N1CCC[C@H](N1)C(=O)OCC(C)(C)C2 [Compound A182] | 0.1 to 1 | 1 to 10 | 0.1 to 1 | 1 to 10 | 1 to 10 | 1 to 10 | > 10 | 1 to 10 | 1 to 10 | < 5 | 
7 | CCn1c(-c2cccnc2[C@H](C)OC)c2c3cc(ccc31)-c1cc(O)cc(c1)C[C@H](NC(=O)[C@H](C(C)C)N(C)C(=O)[C@H]1CNC[C@@H]1C)C(=O)N1CCC[C@H](N1)C(=O)OCC(C)(C)C2 [Compound A251] | 0.1 to 1 | 0.1 to 1 | 0.01 to 0.1 | 0.01 to 0.1 | 0.1 to 1 | 0.1 to 1 | 0.1 to 1 | 0.1 to 1 | > 10 |  | 
8 | CCn1c(-c2cccnc2[C@H](C)OC)c2c3cc(ccc31)-c1csc(n1)C[C@H](NC(=O)[C@H](C(C)C)N(C)C(=O)N1CC(C3COC3)C1)C(=O)N1CCC[C@H](N1)C(=O)OCC(C)(C)C2 [Compound A298] | 0.01 to 0.1 | 0.01 to 0.1 | 0.1 to 1 | 0.1 to 1 | 0.1 to 1 | 0.1 to 1 | 0.1 to 1 | 0.01 to 0.1 | 0.01 to 0.1 |  | 
9 | CO[C@@H](C)c1ncccc1-c1c2c3cc(ccc3n1CC(F)(F)F)-c1csc(n1)C[C@H](NC(=O)[C@H](C(C)C)N(C)C(=O)N1CC(N(C)C)C1)C(=O)N1CCC[C@H](N1)C(=O)OCC(C)(C)C2 [Compound A303] | 0.01 to 0.1 | 0.01 to 0.1 | 0.1 to 1 | 0.1 to 1 | 0.1 to 1 | 0.1 to 1 | 0.1 to 1 | 0.1 to 1 |  |  | 0.01 to 0.1
10 | CCn1c(-c2cccnc2[C@H](C)OC)c2c3cc(ccc31)-c1cc(O)cc(c1)C[C@H](NC(=O)[C@H](C(C)C)N1CNCC1=O)C(=O)N1CCC[C@H](N1)C(=O)OCC(C)(C)C2 [Compound A345] | 0.1 to 1 | 0.1 to 1 | 0.1 to 1 | 0.1 to 1 | 0.1 to 1 | 1 to 10 | 1 to 10 | 0.1 to 1 | 1 to 10 |  | 
11 | CCn1c(-c2cccnc2[C@H](C)OC)c2c3cc(ccc31)-c1cc(O)cc(c1)C[C@H](NC(=O)C(C)=C(C)C)C(=O)N1CCC[C@H](N1)C(=O)OCC(C)(C)C2 [Compound A398] | 1 to 10 | 1 to 10 | 0.1 to 1 | 1 to 10 | 1 to 10 | 1 to 10 | > 10 | 1 to 10 | 1 to 10 |  | 
